Assay results published in patent US10239843B2 (CANCER RESEARCH TECHNOLOGY LIMITED, priority 2014, dated 2019).
Like-named read-outs stand apart in the source and are kept apart here.

Columns and labels:
Human Full Length PARG = Human Full Length PARG (Homo sapiens (Human), UniProt Q86W56); assay: PARG enzyme assay (TR-FRET); type: biochemical; details: read-out: PARG Biochem IC50 Geomean
PARG in HeLa cell line = assay: PARG cell assay (PAR chain immunofluorescence after MMS); type: cell-based; details: HeLa cells, MMS 50 μg/mL, read-out: PARG Cell IC50 Geomean
Experimental: This method is based on the detection of endogenous levels of poly (ADP) ribose chains present in the nucleus of HeLa cell line using indirect immunofluorescence. MMS stimulation increases PAR chains for up to 25 mins. After that point, PARG is active and breaks down the PAR chains, until by one hour after stimulation no PAR chains are detectable. Inhibition of PARG maintains PAR chains.
Briefly, following compound treatment and treatment with the DNA damaging agent methylmethanesulfonate (MMS), the cell monolayer is fixed, then permeabilised and incubated with a mouse monoclonal antibody raised against multimers of poly(ADP) ribose.
At the end of the 1 h dosing period, MMS was added to duplicates at a final concentration of 50 μg/mL, for a further hour.
Media was tipped off and the cells fixed with 50 μL ice-cold 95% MetOH/PBS for 15 mins at −20° C. Following a PBS wash, 50 μL PBS/0.1% Triton was added to the cells for 20 mins. Following another PBS wash, anti-PAR antibody (Calbiochem AM80) was diluted 1:4000 in a buffer (PBS+0.5% FBS+0.05% Tween20) and added to the cells and incubated overnight at 4° C.
Cells were washed three times with PBS and the plate sealed with a light-proof seal.

Sequence of Human Full Length PARG (Q86W56 whole entry): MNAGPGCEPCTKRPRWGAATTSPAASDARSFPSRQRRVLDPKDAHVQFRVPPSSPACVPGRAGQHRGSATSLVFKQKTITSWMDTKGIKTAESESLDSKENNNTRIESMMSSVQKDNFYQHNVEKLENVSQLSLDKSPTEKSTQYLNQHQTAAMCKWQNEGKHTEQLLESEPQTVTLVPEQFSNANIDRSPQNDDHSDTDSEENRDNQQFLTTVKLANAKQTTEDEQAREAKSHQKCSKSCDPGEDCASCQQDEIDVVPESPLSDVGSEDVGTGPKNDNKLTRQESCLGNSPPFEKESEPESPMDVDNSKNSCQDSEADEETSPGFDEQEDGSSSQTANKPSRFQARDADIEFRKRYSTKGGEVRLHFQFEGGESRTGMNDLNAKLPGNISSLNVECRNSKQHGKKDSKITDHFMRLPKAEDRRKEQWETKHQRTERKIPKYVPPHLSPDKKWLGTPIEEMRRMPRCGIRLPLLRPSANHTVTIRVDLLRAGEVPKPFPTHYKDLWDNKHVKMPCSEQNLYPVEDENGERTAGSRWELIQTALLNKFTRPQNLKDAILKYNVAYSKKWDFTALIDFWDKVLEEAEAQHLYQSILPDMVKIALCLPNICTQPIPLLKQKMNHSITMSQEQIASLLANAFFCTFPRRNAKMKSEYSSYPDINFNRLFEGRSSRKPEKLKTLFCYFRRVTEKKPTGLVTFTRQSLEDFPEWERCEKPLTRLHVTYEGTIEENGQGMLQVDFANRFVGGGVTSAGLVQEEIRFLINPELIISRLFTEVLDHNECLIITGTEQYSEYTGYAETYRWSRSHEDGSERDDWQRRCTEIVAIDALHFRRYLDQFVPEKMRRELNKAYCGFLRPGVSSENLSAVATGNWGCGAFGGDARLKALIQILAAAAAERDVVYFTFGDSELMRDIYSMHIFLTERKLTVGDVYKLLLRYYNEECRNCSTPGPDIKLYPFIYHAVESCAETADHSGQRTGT

Compound	IC50 (Human Full Length PARG)	IC50 (PARG in HeLa cell line; Homo sapiens)	IC50 (PARG in HeLa cell line)
Cc1ncc(Cn2c(=O)[nH]c3ccc(S(=O)(=O)NC4(C)CC4)cc3c2=O)s1 [Example 220, N-(1-Methylcyclopropyl)-3-[(2-methylthiazol-5-yl)methyl]-2,4-dioxo-1H-quinazoline-6-sulfonamide]	273 nM	481 nM	
Cc1cc(Cn2c(=O)[nH]c3ccc(S(=O)(=O)NC4(C#N)CC4)cc3c2=O)on1 [Example 228, N-(1-Cyanocyclopropyl)-3-[(3-methylisoxazol-5-yl)methyl]-2,4-dioxo-1H-quinazoline-6-sulfonamide]	356 nM		15200 nM
Cc1cc(Cn2c(=O)c3cc(S(=O)(=O)NC4(C#N)CC4)ccc3n(C)c2=O)on1 [Example 229]	446 nM	1470 nM	
Cc1cc(Cn2c(=O)c3cc(S(=O)(=O)NC4(C)CC4)ccc3n(Cc3cc(C(F)(F)F)nn3C)c2=O)on1 [Example 230]	127 nM		213 nM
Cc1ncc(Cn2c(=O)c3cc(S(=O)(=O)NC4(C)CC4)ccc3n(Cc3cc(C(F)(F)F)nn3C)c2=O)s1 [Example 231]	55 nM	47 nM	
CN(C)CCn1c(=O)n(Cc2cnn(C)c2)c(=O)c2cc(S(=O)(=O)NC3(C)CC3)ccc21 [Example 235]	224 nM		314 nM
CN(C)CCCn1c(=O)n(Cc2cnn(C)c2)c(=O)c2cc(S(=O)(=O)NC3(C)CC3)ccc21 [Example 237]	232 nM	285 nM	
CN1CCCCC1Cn1c(=O)n(Cc2cnn(C)c2)c(=O)c2cc(S(=O)(=O)NC3(C)CC3)ccc21 (centres unmarked) [Example 238]	158 nM	220 nM	
COCCCn1c(=O)n(Cc2cnn(C)c2)c(=O)c2cc(S(=O)(=O)NC3(C)CC3)ccc21 [Example 239]	209 nM		127 nM
Cc1cc(Cn2c(=O)c3cc(S(=O)(=O)NC4(C)CC4)ccc3n(Cc3noc(C)n3)c2=O)on1 [Example 243]	312 nM	221 nM	
Cc1cc(Cn2c(=O)c3cc(S(=O)(=O)NC4(C)CC4)ccc3n(CCN(C)C)c2=O)on1 [Example 246]	469 nM	431 nM	
Cc1cc(Cn2c(=O)c3cc(S(=O)(=O)NC4(C)CC4)ccc3n(CCCN(C)C)c2=O)on1 [Example 247]	404 nM	310 nM	
Cc1cc(Cn2c(=O)c3cc(S(=O)(=O)NC4(C)CC4)ccc3n(CC3CCCN3C)c2=O)on1 (centres unmarked) [Example 249]	402 nM	315 nM	
CNCCCn1c(=O)n(Cc2cc(C)no2)c(=O)c2cc(S(=O)(=O)NC3(C)CC3)ccc21 [Example 250]	323 nM	328 nM	
COCCCn1c(=O)n(Cc2cc(C)no2)c(=O)c2cc(S(=O)(=O)NC3(C)CC3)ccc21 [Example 251]	392 nM		178 nM
Cc1cc(Cn2c(=O)c3cc(S(=O)(=O)NC4(C)CC4)ccc3n(Cc3nc(C)no3)c2=O)on1 [Example 252]	391 nM	297 nM	
Cc1cc(Cn2nc(NCCN(C)C)c3ccc(S(=O)(=O)NC4(C)CC4)cc3c2=O)on1 [Example 253]	376 nM	2020 nM	
Cn1cc(Cn2c(=O)c3cc(S(=O)(=O)NC4(C)CC4)ccc3n(CC3CCCCO3)c2=O)cn1 (centres unmarked) [Example 257]	103 nM	98 nM	
Cn1cc(Cn2c(=O)c3cc(S(=O)(=O)NC4(C)CC4)ccc3n(CC3CCCO3)c2=O)cn1 (centres unmarked) [Example 258]	169 nM	131 nM	
Cn1cc(Cn2c(=O)c3cc(S(=O)(=O)NC4(C)CC4)ccc3n(CC3CCOC3)c2=O)cn1 (centres unmarked) [Example 259]	108 nM	108 nM	
Cn1cc(Cn2c(=O)c3cc(S(=O)(=O)NC4(C)CC4)ccc3n(CCCOC(F)(F)F)c2=O)cn1 [Example 264]	256 nM	187 nM	
CN(C)C(=O)Cn1c(=O)n(Cc2cnn(C)c2)c(=O)c2cc(S(=O)(=O)NC3(C)CC3)ccc21 [Example 265]	418 nM	6480 nM	

Compound	IC50 (Human Full Length PARG)	IC50 (PARG in HeLa cell line; Homo sapiens)	IC50 (PARG in HeLa cell line)
Cc1cc(Cn2c(=O)c3cc(S(=O)(=O)NC4(C)CC4)ccc3n(CC3CCCCO3)c2=O)on1 (centres unmarked) [Example 266]	296 nM		214 nM
Cc1cc(Cn2c(=O)c3cc(S(=O)(=O)NC4(C)CC4)ccc3n(CC3CCCO3)c2=O)on1 (centres unmarked) [Example 267]	234 nM		248 nM
Cc1cc(Cn2c(=O)c3cc(S(=O)(=O)NC4(C)CC4)ccc3n(CC3CCOC3)c2=O)on1 (centres unmarked) [Example 268]	111 nM	217 nM	
Cn1cc(Cn2c(=O)c3cc(S(=O)(=O)NC4(C)CC4)ccc3n(CC3CCOCC3)c2=O)cn1 [Example 269]	57 nM	98 nM	
COCCn1c(=O)n(Cc2cnn(C)c2)c(=O)c2cc(S(=O)(=O)NC3(C)CC3)ccc21 [Example 270]	128 nM	102 nM	
Cn1cc(Cn2c(=O)c3cc(S(=O)(=O)NC4(C)CC4)ccc3n(CCN3CCOCC3)c2=O)cn1 [Example 271]	97 nM		161 nM
Cn1cc(Cn2c(=O)c3cc(S(=O)(=O)NC4(C)CC4)ccc3n(CCN3CCCC3)c2=O)cn1 [Example 272]	317 nM	467 nM	
Cn1cc(Cn2c(=O)c3cc(S(=O)(=O)NC4(C)CC4)ccc3n(CCC(N)=O)c2=O)cn1 [Example 273]	291 nM	14500 nM	
COCCn1c(=O)n(Cc2cc(C)no2)c(=O)c2cc(S(=O)(=O)NC3(C)CC3)ccc21 [Example 274]	237 nM		166 nM
Cc1cc(Cn2c(=O)c3cc(S(=O)(=O)NC4(C)CC4)ccc3n(CC3CCCCN3C)c2=O)on1 (centres unmarked) [Example 275]	333 nM	304 nM	
Cc1cc(Cn2c(=O)c3cc(S(=O)(=O)NC4(C)CC4)ccc3n(CCN3CCOCC3)c2=O)on1 [Example 276]	255 nM	536 nM	
Cc1cc(Cn2c(=O)c3cc(S(=O)(=O)NC4(C)CC4)ccc3n(CCC(N)=O)c2=O)on1 [Example 277]	432 nM	5760 nM	
Cn1cc(Cn2c(=O)c3cc(S(=O)(=O)NC4(C)CC4)ccc3n(CC3CCCC3)c2=O)cn1 [Example 279]	168 nM	51 nM	
Cn1cc(Cn2c(=O)c3cc(S(=O)(=O)NC4(C)CC4)ccc3n(CC3CCCCC3)c2=O)cn1 [Example 280]	177 nM	103 nM	
Cn1cc(Cn2c(=O)c3cc(S(=O)(=O)NC4(C)CC4)ccc3n(CC3CCC3)c2=O)cn1 [Example 281]	76 nM	44 nM	
Cc1cc(Cn2c(=O)c3cc(S(=O)(=O)NC4(C)CC4)ccc3n(CC3CCC3)c2=O)on1 [Example 288]	175 nM		79 nM
Cc1cc(Cn2c(=O)c3cc(S(=O)(=O)NC4(C)CC4)ccc3n(CC3CCCC3)c2=O)on1 [Example 289]	280 nM		129 nM
Cc1cc(Cn2c(=O)c3cc(S(=O)(=O)NC4(C)CC4)ccc3n(CC3CCCCC3)c2=O)on1 [Example 290]	497 nM	260 nM	
CC(C)n1c(=O)n(Cc2cnn(C)c2)c(=O)c2cc(S(=O)(=O)NC3(C)CC3)ccc21 [Example 292]	341 nM	221 nM	
Cn1cc(Cn2c(=O)c3cc(S(=O)(=O)NC4(C)CC4)ccc3n(CC3(C)COC3)c2=O)cn1 [Example 294]	47 nM	226 nM	
CC(C)Cn1c(=O)n(Cc2cnn(C)c2)c(=O)c2cc(S(=O)(=O)NC3(C)CC3)ccc21 [Example 295]	70 nM	85 nM	
